Experimental findings from US20070059269A1, “Administration of 8-hexadecene-1,16-dicarboxylic acid for promoting cohesion of the epidermal horny layer” (L'OREAL, priority 2005, published 2007) are described below.

Common to all, as to assay type: cell-based
Test [1] relates to LEP16. Nature of the test: Differential expression by cDNA minichips in NHEK: LEP16. As to conditions: normal human epidermal keratinocytes (NHEK), cDNA array. Here is the method:
(§1) Analysis of the Differential expression by Minichips:
(§2) In order to study the activity of a product on the formation of the horny layer, the effect of the product on the expression of genes known to be modulated in keratinocytes during their transformation into corneocytes is analyzed.
(§3) The analysis is performed using dedicated minichips, consisting of cDNA membrane arrays known to those skilled in the art for their relationship with re-epithelialization and/or cohesion of the horny layer, especially such as the LEP proteins (late epidermal proteins), corneodesmosines and epidermal growth factor HBEGF (human heparin-binding EGF-like growth factor).
(§4) The cell model used comprises normal human epidermal keratinocytes (NHEK). The keratinocytes are cultured in SFM medium with 0.25 ng/ml EGF and 25 μg/ml of pituitary extract at 37° C. and 5% CO2. The keratinocytes are inoculated in 25 cm^2 dishes and precultured in whole SFM medium, and then placed in EGF-free and pituitary extract-free SFM medium.
(§5) The test products are applied at the non-irritant and non-cytotoxic concentrations defined in a).
(§6) The controls correspond to the same conditions, in the absence of product.
(§7) The cells are then rinsed with PBS and then lysed and the messenger RNA is extracted and purified using the kit Chemagic mRNA Direct kit marketed by Chemagen.
(§8) The RNA of each culture is then reverse-transcripted using a pool of primers corresponding to the cDNAs immobilized on the membranes (probes) and a ^33P-labelled deoxynucleotide triphosphate.
(§9) Multiple cDNA “target” labeled sequences were thus prepared for each culture. These targets were then hybridized, under optimal conditions, with the excess “probe” cDNAs bound to the membranes. […] The membrane analysis was performed using the ImageQuant TL software (Image Analysis, Amersham Biosciences) and the data recorded were then processed on Excel. The differential expression of the various genes following the treatment is thus measured by comparison with the corresponding control.

Test [2] relates to Cdsn (corneodesmosine). The experiment in a line: Differential expression by cDNA minichips in NHEK: corneodesmosine (Cdsn). Conditions: normal human epidermal keratinocytes (NHEK), cDNA array. Here is the method:
as §1, §2, §3, §4, §5, §6, §7, §8, §9

Test [3] deals with HBEGF (human heparin-binding EGF-like growth factor). The experiment in a line: Differential expression by cDNA minichips in NHEK: HBEGF. Conditions: 1 μg/ml, normal human epidermal keratinocytes (NHEK), cDNA array. Here is the method:
as §1, §2, §3
The cell model used comprises normal human epidermal keratinocytes (NHEK). The keratinocytes are cultured in SFM medium with 0.25 ng/ml EGF and 25 μg/ml of pituitary extract at 37° C. and 5% CO2. The keratinocytes are inoculated in 25 cm^2 dishes and precultured in whole SFM medium, and then placed in EGF-free and pituitary extract-free SFM medium. […]
Multiple cDNA “target” labeled sequences were thus prepared for each culture. […] The membrane analysis was performed using the ImageQuant TL software (Image Analysis, Amersham Biosciences) and the data recorded were then processed on Excel. The differential expression of the various genes following the treatment is thus measured by comparison with the corresponding control.

Where [4] appears, read: 1 μg/ml, listed as 8-hexadecene-1,16-dicarboxylic acid.

On to `CC(O)C(=O)O` (stereo not shown) [Lactic acid, reference compound], for which, in test [1] (100 μg/ml), the “Markers for the formation of the horny layer (LEP): LEP16 expression, multiplicative factor vs control” value (“Markers for the formation … vs control” for short) was “LEP16 (×1.6)”.

As for `O=C1O[C@H]([C@@H](O)CO)C(O)=C1O` [Ascorbic acid, reference compound], the “Markers for intercorneocytic cohesion (Cdsn): Cdsn expression, multiplicative factor vs control” value in test [2] (100 μg/ml) is “Cdsn (×1.7)”.

In the case of `O=C(O)CCCCCCCC=CCCCCCCCC(=O)O` [Dioic acid, 8-hexadecene-1,16-dicarboxylic acid], the “Markers for the formation … vs control” value in test [1] (1 μg/ml) is listed as “LEP16 (×3.0)”; in test [1] (setting [4]), “capable of stimulating the expression”. Besides, the entries for the “Markers for intercorneocytic cohesion (Cdsn): Cdsn expression, multiplicative factor vs control” value in test [2] (1 μg/ml) and in test [2] (setting [4]) were “Cdsn (×2.4)” and “capable of stimulating the expression”, respectively. In addition, the “Re-epithelialization markers: HBEGF expression, multiplicative factor vs control” value in test [3] is reported as “HBEGF (×1.6)”; in test [3] (listed as 8-hexadecene-1,16-dicarboxylic acid), “capable of stimulating the expression”.

`O=C(O)CO` [Glycolic acid, reference compound]: the “Markers for the formation … vs control” value in test [1] (100 μg/ml) is on record as “LEP16 (×2.6)”. In addition, the “Markers for intercorneocytic cohesion (Cdsn): Cdsn expression, multiplicative factor vs control” value in test [2] (100 μg/ml) is “Cdsn (×1.6)”.
